# Measured values taken from US20050079231A1, “Use of ingested sublimed sulfur for the restoration of lactose tolerance in humans with the medical disorder of lactose intolerance” (priority 1999, published 2005).
# Experiments:
# [1] = test system: patients with clinical lactose intolerance; test: Treatment of lactose-intolerant patients with sublimed sulfur: clinical symptoms, baseline vs post-treatment; format: in vivo, humans
# Experimental: (§1) From May 1998 through April 2002, 41 patients (22 with clinical and 19 with both clinical and laboratory evidence of severe lactose intolerance) were treated with sublimed sulfur (USP) and a restricted lactose diet for a mean of 3.6 (standard deviation [SD] 3.4) weeks, followed by a regular diet and sublimed sulfur for a mean of 5.8 (SD 5.0) weeks. Quantitative comparisons were made between baseline and post-treatment symptoms in all patients and standard lactose tolerance test results in a subset of 19 patients with positive baseline lactose tolerance tests.
# [2] = test system: patients with positive baseline lactose tolerance tests; test: Standard lactose tolerance test, baseline vs post-treatment; format: in vivo, humans
# Experimental: as §1
# [3] = limited course of treatment, conclusion
smiles,measurement,setting,value
[S] [sublimed sulfur],patients who remained asymptomatic after a second course of treatment,[1]; 13 of 17 patients whose symptoms redeveloped,76%
same,patients who became clinically asymptomatic after treatment,[1]; 17 of the subset of 19 patients with positive baseline lactose tolerance tests,89%
same,patients who remained symptom-free after one course of treatment,[1]; 20 of the remaining 39 patients,51%
same,patients who became asymptomatic during treatment,"[1]; 39 of 41 patients, sublimed sulfur with restricted lactose diet, then regular diet",95%
same,overall relapse rate,"[1]; after one course of treatment, confidence interval in brackets",0.46 (confidence interval 0.32-0.61)
same,median symptom-free period after discontinuation of sublimed sulfur,"[1]; human, in vivo",76 weeks
same,lactose tolerance,[1]; [3],restored lactose tolerance for prolonged periods
same,patients who converted from intolerant to tolerant test results,[2]; 9 of 19 patients,47%
same,serum glucose level versus baseline in the lactose tolerance test,"[2]; at 30 minutes, t=2.81, p=0.01",increased significantly above baseline
same,serum glucose level versus baseline in the lactose tolerance test,"[2]; at 60 minutes, t=2.58, p=0.02",increased significantly above baseline
same,lactase activity,[2]; [3],significant increase
